In patent publication US20090240027A1, “INTERMEDIATES FOR MACROCYCLIC COMPOUNDS” (Tranzyme Pharma Inc., priority 2003, published 2009):

The compounds below were run against human motilin receptor (Homo sapiens, UniProt O43193) (assay: Competitive radioligand binding assay (Method B1)). Settings: Radioligand competitive binding assay, Method B1; values reported as ranges; read-out: Ki (binding activity).
human motilin receptor, sequence (O43193 whole entry): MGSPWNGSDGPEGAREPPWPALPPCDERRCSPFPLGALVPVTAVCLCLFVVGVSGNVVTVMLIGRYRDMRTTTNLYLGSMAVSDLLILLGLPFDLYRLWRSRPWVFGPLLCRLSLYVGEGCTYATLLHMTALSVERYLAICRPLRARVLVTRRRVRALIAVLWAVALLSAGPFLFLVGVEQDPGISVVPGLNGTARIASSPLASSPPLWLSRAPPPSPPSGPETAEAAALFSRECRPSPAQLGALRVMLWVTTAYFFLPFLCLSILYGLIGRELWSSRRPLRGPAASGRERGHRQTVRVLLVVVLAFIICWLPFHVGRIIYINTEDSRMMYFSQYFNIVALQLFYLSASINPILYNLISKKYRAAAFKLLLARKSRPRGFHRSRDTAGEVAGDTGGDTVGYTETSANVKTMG
Set-up: purchased PerkinElmer 6110544; host or cells: CHO cells, stably transfected (membranes)
Experimental: Competitive Radioligand Binding Assay (Motilin Receptor)
• Membranes were prepared from CHO cells stably transfected with the human motilin receptor and utilized at a quantity of 1.5 μg/assay point.
Final Test Concentrations (N=11) for Compounds:
Compounds were provided frozen on dry ice at a stock concentration of 10 mM diluted in 100% DMSO and stored at −20° C. until the day of testing. On the test day, compounds were allowed to thaw at room temperature and than diluted in assay buffer according to the desired test concentrations. Under these conditions, the maximum final DMSO concentration in the assay was 0.5%.
Plates are sealed with TopSeal-A, vortexed gently and incubated at room temperature for 2 hours. The reaction is arrested by filtering samples through pre-soaked (0.3% polyethyleneimine, 2 h) Multiscreen Harvest plates using a Tomtec® Harvester (Tomtec, Hamden, Conn.)), washed 9 times with 500 μL of cold 50 mM Tris-HCl (pH 7.4), and than plates are air-dried in a fumehood for 30 minutes. A bottom seal is applied to the plates prior to the addition of 25 μL of MicroScint-0™ to each well.
Data are analyzed by GraphPad™ Prism (GraphPad Software, San Diego, Calif.) using a variable slope non-linear regression analysis.
where total and non-specific binding represent the cpm obtained in the absence or presence of 1 μM motilin, respectively.
For CC(C)CC1NC(=O)C(C(C)C)NC(=O)C(Cc2cccc3ccccc23)NCCOc2cccnc2CCCNC1=O (stereo not drawn) [Compound 136], the Ki was 100 to 1000 nM. With CC(C)CC1NC(=O)C(C(C)C)NC(=O)C(Cc2cccs2)NCCOc2cccnc2CCCNC1=O (stereo not drawn) [Compound 137] the Ki was 100 to 1000 nM. Compound CC(C)CC1NC(=O)C(C(C)C)NC(=O)C(Cc2ccc(Cl)cc2)NCCOc2cccnc2CCCNC1=O (stereo not drawn) [Compound 139] has a Ki of 100 to 1000 nM. In the case of CC(C)CC1NC(=O)C(C(C)C)NC(=O)C(Cc2ccc(F)cc2)NCCOc2cccnc2CCCNC1=O (stereo not drawn) [Compound 140], the Ki is reported as 100 to 1000 nM. COc1ccc(C[C@H]2NCCOc3ccccc3CCCNC(=O)[C@H](CC3CC3)NC(=O)[C@@H](C(C)C)NC2=O)cc1 [Compound 141] gave a Ki of 1 to 100 nM. CC(C)[C@H]1NC(=O)[C@@H](Cc2ccc(Cl)cc2)NCCOc2ccccc2CCCNC(=O)[C@H](CC2CC2)NC1=O [Compound 145] showed a Ki of 1 to 100 nM. CC(C)C1NC(=O)C(Cc2ccc(Cl)cc2)NCCOc2cccnc2CCCNC(=O)C(CC2CC2)NC1=O (stereo not drawn) [Compound 150] showed a Ki of 100 to 1000 nM. COc1ccc(CC2NCCOc3ccccc3CCCNC(=O)C(CN)NC(=O)C(C(C)C)NC2=O)cc1 (stereo not drawn) [Compound 152] gave a Ki of 100 to 1000 nM. With CC(C)C1NC(=O)C(Cc2cccc3ccccc23)NCCOc2ccccc2CCCNC(=O)C(CN)NC1=O (stereo not drawn) [Compound 153] the Ki was 100 to 1000 nM. In the case of CC(C)C1NC(=O)C(Cc2cccs2)NCCOc2ccccc2CCCNC(=O)C(CN)NC1=O (stereo not drawn) [Compound 154], the Ki is reported as 100 to 1000 nM. Compound CC(C)[C@H]1NC(=O)[C@@H](Cc2cccc(Cl)c2)NCCOc2ccccc2CCCNC(=O)[C@H](CN)NC1=O [Compound 155] has a Ki of 1 to 100 nM. With CC(C)[C@H]1NC(=O)[C@@H](Cc2ccc(Cl)cc2)NCCOc2ccccc2CCCNC(=O)[C@H](CN)NC1=O [Compound 156] the Ki was 1 to 100 nM. Compound CC(C)C1NC(=O)C(Cc2ccc(F)cc2)NCCOc2ccccc2CCCNC(=O)C(CN)NC1=O (stereo not drawn) [Compound 157] has a Ki of 100 to 1000 nM. With CC(C)[C@H]1NC(=O)[C@@H](Cc2cccc(Cl)c2)NCCOc2cccnc2CCCNC(=O)[C@H](CN)NC1=O [Compound 158] the Ki was 1 to 100 nM. With CCCC1NC(=O)C(C(C)CC)NC(=O)C(Cc2ccc(O)cc2)NCCOc2ccccc2CCCNC1=O (stereo not drawn) [Compound 159] the Ki was 100 to 1000 nM. CCCC1NC(=O)C(C(C)CC)NC(=O)C(Cc2ccc(O)cc2)NCCOc2ccccc2CCCNC1=O (stereo not drawn) [Compound 160] showed a Ki of 100 to 1000 nM. CCCC1NC(=O)C(C(C)C)NC(=O)C(Cc2ccc(CN)cc2)NCCOc2ccccc2CCCNC1=O (stereo not drawn) [Compound 161] showed a Ki of 100 to 1000 nM. CCCC1NC(=O)C(C(C)C)NC(=O)C(Cc2ccccc2C)NCCOc2ccccc2CCCNC1=O (stereo not drawn) [Compound 162] was tested, and the Ki was 100 to 1000 nM. CCC[C@@H]1NC(=O)[C@@H](C(C)C)NC(=O)[C@@H](Cc2cccc(C)c2)NCCOc2ccccc2CCCNC1=O [Compound 163] was tested, and the Ki was 1 to 100 nM. With CCC[C@@H]1NC(=O)[C@@H](C(C)C)NC(=O)[C@@H](Cc2ccc(C)cc2)NCCOc2ccccc2CCCNC1=O [Compound 164] the Ki was 100 to 1000 nM. Work on CCC[C@@H]1NC(=O)[C@@H](C(C)C)NC(=O)[C@@H](Cc2cccc(OC)c2)NCCOc2ccccc2CCCNC1=O [Compound 165] yielded a Ki of 1 to 100 nM. CCCC1NC(=O)C(C(C)C)NC(=O)C(Cc2ccccc2OC)NCCOc2ccccc2CCCNC1=O (stereo not drawn) [Compound 166] showed a Ki of 100 to 1000 nM. Compound CCCC1NC(=O)C(C(C)C)NC(=O)CC(Cc2cccc(Cl)c2)NCCOc2ccccc2CCCNC1=O (stereo not drawn) [Compound 169] has a Ki of 100 to 1000 nM. CCC[C@@H]1NC(=O)[C@@H](C(C)C)NC(=O)[C@@H](Cc2ccc(Cl)c(Cl)c2)NCCOc2ccccc2CCCNC1=O [Compound 170] showed a Ki of 1 to 100 nM. In the case of CCC[C@@H]1NC(=O)[C@@H](C(C)C)NC(=O)[C@@H](Cc2ccc(F)c(F)c2)NCCOc2ccccc2CCCNC1=O [Compound 171], the Ki is reported as 1 to 100 nM. In the case of CCC[C@@H]1NC(=O)[C@@H](C(C)C)NC(=O)[C@@H](Cc2ccc(OC)c(OC)c2)NCCOc2ccccc2CCCNC1=O [Compound 172], the Ki is reported as 1 to 100 nM. Compound CCCC1NC(=O)C(C(C)C)NC(=O)C(Cc2ccc(O)cc2)NCCOc2ccccc2CCNC1=O (stereo not drawn) [Compound 177] has a Ki of 100 to 1000 nM. With COc1ccc(CC2NCCOc3ccccc3CCCNC(=O)C(CO)NC(=O)C(C(C)C)NC2=O)cc1 (stereo not drawn) [Compound 178] the Ki was 100 to 1000 nM. CC(C)C1NC(=O)C(Cc2cccc3ccccc23)NCCOc2ccccc2CCCNC(=O)C(CO)NC1=O (stereo not drawn) [Compound 179] showed a Ki of 100 to 1000 nM.

The compounds below were run against T1, motilin receptor (Oryctolagus cuniculus, UniProt G1T803) (assay: Rabbit duodenum contractility assay (Method B4)). Settings: not given.
T1 construct: Duodenal segments were vertically suspended in organ chambers; from tissue; host or cells: rabbit duodenum segments
T1 sequence (G1T803 1-400): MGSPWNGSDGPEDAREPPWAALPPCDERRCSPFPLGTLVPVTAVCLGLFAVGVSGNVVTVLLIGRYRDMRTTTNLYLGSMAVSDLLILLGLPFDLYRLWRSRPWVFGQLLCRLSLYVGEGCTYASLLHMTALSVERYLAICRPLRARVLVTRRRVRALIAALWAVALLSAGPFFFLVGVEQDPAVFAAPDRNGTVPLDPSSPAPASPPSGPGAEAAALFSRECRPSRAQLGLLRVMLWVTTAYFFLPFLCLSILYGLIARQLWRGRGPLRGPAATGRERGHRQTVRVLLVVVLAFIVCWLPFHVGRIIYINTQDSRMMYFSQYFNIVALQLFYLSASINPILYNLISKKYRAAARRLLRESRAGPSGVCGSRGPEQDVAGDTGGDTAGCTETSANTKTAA
Experimental: Compounds of the present invention have shown significant antagonist activity in this assay.
Rabbit Duodenum Contractility Assay
Duodenal segments were vertically suspended in organ chambers of 10 mL filled with Krebs buffer and connected to an isotonic force transducer, with a preload of 1 g. After a stabilization period, the muscle strips were challenged with 10^−4 M acetylcholine and washed. This was repeated until a stable maximal contraction was obtained (2-3 times), with an interval of at least 20 minutes.
After a stable base line was reached, test compounds were added to the bath. After 15 min incubation, a dose response to motilin was recorded by adding logarithmically increasing concentrations of motilin to the bath (final concentration 10^−9 to 10^−6 M). A blank experiment (no test compound present) was also performed. At the end of the dose response curve, a supramaximal dose of acetylcholine (10^−4 M) was given and this response was used as a reference (100% contraction).
The results of experiments at different concentrations of test compound were combined and analyzed to derive the pA2 value from the Schild plot.
CCC[C@@H]1NC(=O)[C@@H](C(C)C)NC(=O)[C@@H](Cc2cccc(OC)c2)NCCOc2ccccc2CCCNC1=O [Compound 165] showed a Kb of 67.6 nM.
